Data from patent US5527820A, “Antibiotics having immunosuppressive activity, delaminomycins and processes for the production of the same” (priority 1992, dated 1996).
Values after ≈ are worked out from the molar mass of the structure shown.

Assays:
[1] = tested on: spleen cells (T cells activated by Concanavalin A); assay: Inhibitory activity against blastogenesis and proliferation of spleen cells caused by mitogen (Con A); type: cell-based, mouse (CDF1)
[2] = tested on: Trichophyton mentagrophytes F-15 (833); assay: MIC, agar plate dilution method; type: cell-based; details: 27° C., 42 hours, nutrient agar containing glucose
[3] = tested on: nylon wool-passed cells of spleen cells (responder cell; T cells); assay: Inhibitory activity to the mixed lymphocyte culture reaction; type: cell-based, rat (Fischer F344 responder; WKY stimulator)
[4] = tested on: Pellicularia sasakii; assay: MIC, agar plate dilution method; type: cell-based; details: 27° C., 42 hours, nutrient agar containing glucose
[5] = tested on: Gram-positive bacteria; assay: Antibacterial activity to Gram-positive bacteria; type: cell-based; details: result in words
Excerpt: (§1) Delaminomycins A, B, C, A2, B2 and C2 according to this invention further have an antibacterial activity against a variety of bacteria. The minimum growth inhibitory concentrations (MIC) (μg/ml) of the novel antibiotics of this invention on various bacteria and fungi as measured by the agar plate dilution method are shown in Table 5a, Table 5b, Table 5c and Table 5d below.

[6] = tested on: Mouse leukemia P388D1; assay: Inhibitory activity on proliferation of cancer cells; type: cell-based
[7] = tested on: Mouse melanoma B-16; assay: as above; type: cell-based; details: B16
[8] = tested on: Xanthomonas citri; assay: MIC, agar plate dilution method; type: cell-based; details: 27° C., 42 hours, nutrient agar containing glucose
Experimental: as §1
(§2) Evaluated after culturing at 27° C. for 42 hours in nutrient agar
(§3) medium containing glucose.

[9] = tested on: Cochliobolus miyabeanus; assay: MIC, agar plate dilution method; type: cell-based; details: Bipolaris oryzae; 27° C., 42 hours, nutrient agar containing glucose
Experimental: as §1, §2, §3

[10] = tested on: Human Lymphoma Jurkat; assay: Inhibitory activity on proliferation of cancer cells; type: cell-based
[11] = tested on: Piricularia oryzae; assay: microbe, parasite or virus in culture; type: cell-based; details: 42 h
[12] = tested on: Candida pseudotropicalis F-2; assay: MIC, agar plate dilution method; type: cell-based; details: Kluyveromyces marxianus, F2; 27° C., 42 hours, nutrient agar containing glucose
[13] = tested on: Mouse leukemia L-1210; assay: Inhibitory activity on proliferation of cancer cells; type: cell-based; details: L1210
[14] = tested on: Candida Yu-1200; assay: MIC, agar plate dilution method; type: cell-based; details: YU1200, 27° C., 42 hours, nutrient agar containing glucose
[15] = Absorption into the digestive tracts on oral administration; details: result in words
[16] = tested on: Candida tropicalis F-1; assay: MIC, agar plate dilution method; type: cell-based; details: F1, 27° C., 42 hours, nutrient agar containing glucose
[17] = tested on: Cryptococcus neoformans F-10; assay: MIC, agar plate dilution method; type: cell-based; details: F10, 27° C., 42 hours, nutrient agar containing glucose
[18] = tested on: delayed-type hypersensitivity (DTH); assay: Suppressive effect on delayed-type hypersensitivity (DTH) in mouse, intraperitoneal; type: in vivo, mouse (CDF1); details: intraperitoneal once a day, 0-4th day
Excerpt: Suppressive effect of delaminomycins on delayed-type hypersensitivity (DTH) in mouse
CDF1 mice were immunized by intravenously injecting sheep red blood cells (10^5 cells/mouse). On the 4th day after the immunization, sheep red blood cells (10^8 cells/mouse) were subcutaneously injected into the footpad of mice for the elicitation to cause a delayed-type hypersensitivity (DTH). Test compound was intraperitoneally administered to the mice once a day from the 0th day to 4th day after the immunization. On the 5th day after the elicitation the thickness of the mouse footpad was measured to estimate the suppressive effect of the test compound on the DTH response. The suppressive effect of the test compound was evaluated in terms of the inhibition rate (%) as calculated according to the following equation:
(§4) Inhibition rate (%)=100-(T/C×100)
wherein T denotes the thickness of the footpad when administering the test compound, but C denotes the thickness of the footpad when administering no test compound.

[19] = Solubility; details: result in words
[20] = tested on: delayed-type hypersensitivity (DTH); assay: Suppressive effect on delayed-type hypersensitivity (DTH) in mouse, oral; type: in vivo, mouse (CDF1); details: 2.0 mg/mouse, oral once a day, 0~4th day
Experimental: CDF1 mice were immunized by intravenously injecting sheep red blood cells (10^5 cells/mouse). On the 4th day after the immunization, sheep red blood cells (10^8 cells/mouse) were subcutaneously injected into the footpad of mice for the elicitation to cause a delayed-type hypersensitivity. Test compound was orally administered to the mice once a day from the 0 th day to the 4 th day after the immunization. On the 5th day after the elicitation, the thickness of the mouse footpad was measured to estimate the suppressive effect of the test compound on DTH. The suppressive effect of the test compound was evaluated in terms of the inhibition rate (%) as calculated according to the following equation:
as §4
wherein T denotes the thickness of the footpad when the test compound was administered, but C denotes the thickness of the footpad when no test compounnd was administered.

[21] = tested on: Candida albicans 3147; assay: MIC, agar plate dilution method; type: cell-based; details: 27° C., 42 hours, nutrient agar containing glucose
[22] = tested on: Candida krusei F-5; assay: MIC, agar plate dilution method; type: cell-based; details: Pichia kudriavzevii, F5; 27° C., 42 hours, nutrient agar containing glucose
[23] = tested on: Mouse leukemia EL-4; assay: Inhibitory activity on proliferation of cancer cells; type: cell-based; details: EL4
[24] = tested on: Trichophyton asteroides 429; assay: MIC, agar plate dilution method; type: cell-based; details: 27° C., 42 hours, nutrient agar containing glucose
[25] = tested on: Saccharomyces cerevisiae F-7; assay: MIC, agar plate dilution method; type: cell-based; details: F7, 27° C., 42 hours, nutrient agar containing glucose
[26] = tested on: Aspergillus niger F-16; assay: MIC, agar plate dilution method; type: cell-based; details: F16, 27° C., 42 hours, nutrient agar containing glucose

`CCC(O)C(C)/C=C/C=C/C1CC2C=CC3CC(C)CC(C)C3C2(C)C(=O)C12C(=O)NC(OC)C2=O` (stereo not shown) [Delaminomycin B2] showed an IC50 ([1]; Mus musculus, T-cell, read-out: IC50 (inhibition of blastogenesis and proliferation of spleen lymphocyte caused by Con A)) of 0.85 µg/mL (≈ 1.71 µM), an inhibition at 0.2 µg/mL ([1]; Mus musculus, T-cell, 0.20 μg/ml test compound, read-out: Inhibition rate) of 12.3% and an inhibition at 0.78 µg/mL ([1]; Mus musculus, T-cell, 0.78 μg/ml test compound, read-out: Inhibition rate) of 47.6%. For the same molecule, the inhibition at 3.1 µg/mL ([1]; Mus musculus, T-cell, 3.1 μg/ml test compound, read-out: Inhibition rate) was 92.7%, the inhibition at 12.5 µg/mL ([1]; Mus musculus, T-cell, 12.5 μg/ml test compound, read-out: Inhibition rate) was 94.1% and the inhibition at 50 µg/mL ([1]; Mus musculus, T-cell, 50 μg/ml test compound, read-out: Inhibition rate) was 96.7%. The “activity inhibitory to the reaction of proliferation of mouse spleen cells activated with Concanavalin A” value ([1]; in vitro, result in words) was “exhibit an activity inhibitory to the reaction of proliferation of mouse spleen cells”, the MIC [2] was over 100 µg/mL and the inhibition at 0.05 µg/mL ([3]; Rattus norvegicus, T-cell, 0.05 μg/ml test compound, read-out: Inhibition rate) was 0%. The inhibition at 0.2 µg/mL ([3]; Rattus norvegicus, T-cell, 0.20 μg/ml test compound, read-out: Inhibition rate) was 12.3%, the inhibition at 0.78 µg/mL ([3]; Rattus norvegicus, T-cell, 0.78 μg/ml test compound, read-out: Inhibition rate) was 47.6% and the inhibition at 3.1 µg/mL ([3]; Rattus norvegicus, T-cell, 3.1 μg/ml test compound, read-out: Inhibition rate) was 92.7%. For the same molecule, the inhibition at 12.5 µg/mL ([3]; Rattus norvegicus, T-cell, 12.5 μg/ml test compound, read-out: Inhibition rate) was 94.1%, the inhibition at 50 µg/mL ([3]; Rattus norvegicus, T-cell, 50 μg/ml test compound, read-out: Inhibition rate) was 96.7% and the IC50 ([3]; Rattus norvegicus, T-cell, 120 hours, 3H-thymidine incorporation, read-out: IC50 (inhibition of mixed lymphocyte culture reaction)) was 8.6 µg/mL (≈ 17.3 µM). The “activity to inhibit the proliferation of the T cells (responder cell) in mixed lymphocyte culture reaction” value ([3]; in vitro, result in words) was “have an activity to inhibit the reaction of proliferation of the T cells”, the MIC [4] was over 50 µg/mL and the “antibacterial activity to Gram-positive bacteria” value [5] was “antibacterial activity to Gram-positive bacteria”. For the same molecule, the IC50 [6] was 12.1 µg/mL (≈ 24.3 µM), the IC50 [7] was 17.9 µg/mL (≈ 36 µM) and the MIC [8] was over 100 µg/mL. It also gave an MIC [9] of over 100 µg/mL, an IC50 [10] of 11.4 µg/mL (≈ 22.9 µM) and an MIC [11] of over 100 µg/mL. It also gave an MIC [12] of over 100 µg/mL, an IC50 [13] of 8 µg/mL (≈ 16.1 µM) and an MIC [14] of over 100 µg/mL. For the same molecule, the “absorption into the digestive tracts / oral absorption” value [15] was “hardly absorbed into the digestive tracts”, the MIC [16] was over 100 µg/mL and the MIC [17] was over 100 µg/mL. For the same molecule, the “Inhibition rate (DTH footpad thickness)” value ([18]; 15.6 μg/mouse) was -3.3%, the “Inhibition rate (DTH footpad thickness)” value ([18]; 62.5 μg/mouse) was 35.4% and the “Inhibition rate (DTH footpad thickness)” value ([18]; 250 μg/mouse) was 36.2%. For the same molecule, the “Inhibition rate (DTH footpad thickness)” value ([18]; 1000 μg/mouse) was 51.3%, the Solubility ([19]; various solvents) was “soluble in methanol, ethyl acetate, chloroform and ethyl ether but slightly soluble or insoluble in n-hexane and water” and the Solubility in water ([19]; water) was “barely soluble in water”. For the same molecule, the “Inhibition rate (DTH footpad thickness)” value [20] was 18.4%, the MIC [21] was over 100 µg/mL and the MIC [22] was over 100 µg/mL. The IC50 [23] was 6.8 µg/mL (≈ 13.7 µM), the MIC [24] was over 100 µg/mL and the MIC [25] was over 100 µg/mL. It also gave an MIC [26] of over 100 µg/mL.
